Usually IC50 stands for the concentration that gives 50% inhibition.

The target in the test is T1, Mitogen-activated protein kinase kinase kinase 5 (Homo sapiens, UniProt Q99683).
T1 sequence (Q99683 whole entry): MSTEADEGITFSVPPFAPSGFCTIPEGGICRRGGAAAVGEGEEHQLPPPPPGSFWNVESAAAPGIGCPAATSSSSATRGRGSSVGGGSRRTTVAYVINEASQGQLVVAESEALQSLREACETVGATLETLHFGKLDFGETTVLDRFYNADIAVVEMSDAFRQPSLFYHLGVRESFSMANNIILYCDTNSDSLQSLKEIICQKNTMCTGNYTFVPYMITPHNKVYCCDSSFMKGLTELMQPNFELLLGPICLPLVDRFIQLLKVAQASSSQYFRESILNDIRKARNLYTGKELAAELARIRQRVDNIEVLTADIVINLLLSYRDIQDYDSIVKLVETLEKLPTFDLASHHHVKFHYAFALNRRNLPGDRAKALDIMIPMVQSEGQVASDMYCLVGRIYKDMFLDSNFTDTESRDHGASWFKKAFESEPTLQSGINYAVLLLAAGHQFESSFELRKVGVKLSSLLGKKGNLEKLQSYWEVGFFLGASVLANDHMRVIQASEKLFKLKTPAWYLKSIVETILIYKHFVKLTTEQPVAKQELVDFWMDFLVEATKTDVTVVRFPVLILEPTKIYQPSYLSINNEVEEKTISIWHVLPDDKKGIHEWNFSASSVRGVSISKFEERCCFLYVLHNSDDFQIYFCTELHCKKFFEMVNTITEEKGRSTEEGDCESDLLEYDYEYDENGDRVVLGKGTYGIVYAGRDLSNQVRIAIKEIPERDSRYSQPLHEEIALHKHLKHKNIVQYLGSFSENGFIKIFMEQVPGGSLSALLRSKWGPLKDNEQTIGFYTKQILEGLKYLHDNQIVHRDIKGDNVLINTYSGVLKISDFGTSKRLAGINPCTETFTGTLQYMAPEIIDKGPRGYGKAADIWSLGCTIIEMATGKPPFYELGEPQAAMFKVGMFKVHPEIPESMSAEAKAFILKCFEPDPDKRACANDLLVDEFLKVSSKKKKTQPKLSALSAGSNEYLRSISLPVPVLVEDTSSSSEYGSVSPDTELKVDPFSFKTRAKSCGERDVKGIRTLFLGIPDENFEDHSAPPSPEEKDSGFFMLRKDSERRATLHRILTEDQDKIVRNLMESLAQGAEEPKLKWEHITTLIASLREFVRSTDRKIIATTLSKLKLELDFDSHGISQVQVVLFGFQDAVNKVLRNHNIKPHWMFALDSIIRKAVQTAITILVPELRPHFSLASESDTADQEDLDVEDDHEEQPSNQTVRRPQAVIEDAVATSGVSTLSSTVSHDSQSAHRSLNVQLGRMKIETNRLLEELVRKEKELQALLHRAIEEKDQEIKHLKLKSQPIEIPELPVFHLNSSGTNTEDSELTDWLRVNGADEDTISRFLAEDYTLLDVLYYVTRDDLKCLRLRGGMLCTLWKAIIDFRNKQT
The test can be described thus: In Vitro Enzyme Activity: Reagents:Base Reaction Buffer: 20 mM Hepes (pH 7.5), 10 mM MgCl2, 1 mM EGTA, 0.02% Brij35, 0.02 mg/ml BSA, 0.1 mM Na3VO4, 2 mM DTT, 1% DMSOCompound Treatment:The test compound was formulated into a 10 mM stock solution in DMSO, which was diluted into 10 concentrations in 3-fold degression, and placed in a 384-well plate (Cyclic Olefin Copolymer LDV Echo®).Kinase Name: ASK1/MAP3K5 (Invitrogen, Carlsbad, Calif.)Type: Recombinant Human Full Length Protein, GST-taggedFinal concentration of the enzyme: 20 nMSubstrate: Myelin basic protein, MBP (Active Motif, Carlsbad, Calif.)Final concentration of the substrate: 20 μMExperimental Operations:1. The substrate was dissolved in a freshly prepared base reaction buffer.2. A desired coenzyme was added to the above substrate solution.3. The kinase was added to the substrate solution and mixed slowly.4. The solution of the test compound in DMSO was added to the kinase reaction solution and incubated at room temperature for 20 minutes.5. 33P-ATP (specific activity of 10 μCi/μl) was added to the reaction solution to initiate the reaction.6. Incubated at room temperature for 2 hours.7. A small portion of the reactants was placed onto a P-81 ion exchange filter paper.8. The filter paper was washed three times with 0.75% phosphate buffer to wash off the unbound phosphate, and then the filter paper was dried.9. The radioactivity remaining on the filter paper was determined.10. Kinase activity data was expressed as the ratio of the kinase activity remaining in the test sample to the kinase activity in the vehicle (DMSO).

A value given as a limit tells only on which side of the number the result lay.

Take `CC(C)n1cnnc1-c1cccc(N2CCc3cc(Cl)c(-n4cnc(C5CC5)c4)cc3C2=O)n1`: the IC50 was less than 50 nM.
With `CCc1cn(-c2cc3c(=O)n(-c4cccc(-c5nncn5C(C)C)n4)cnc3cc2C)cn1` the figure was less than 50 nM; with `CC(C)c1cc2ncn(-c3cccc(-c4nncn4C(C)C)n3)c(=O)c2cc1-n1cnc(C2CC2)c1`, less than 50 nM.

These data come from ChEMBL document CHEMBL5727981, “ASK1 inhibitor and preparation method and use thereof” (2020).
